Assay results reported in publication PMC9268100, “Chelation of Theranostic Copper Radioisotopes with S-Rich Macrocycles: From Radiolabelling of Copper-64 to In Vivo Investigation” (Molecules, 2022).

Legend:
[1] = Stability in phosphate-buffered saline; type: physicochemical; conditions: 25 MBq/nmol, 24 h; for intact complex in PBS: no radioprotectant, ambient temperature
Experimental: The stability of the preformed [^64Cu]Cu^2+ complexes in phosphate-buffered saline (PBS) was explored by diluting the labelling solution 1:1 v/v in PBS (pH 7.4). Both low and high molar activities (0.1 MBq/nmol and 25 MBq/nmol, respectively) were employed to evaluate the effect of radiolysis. Radioprotectants (ethanol 10% v/v or ascorbic acid 10% v/v) were added to PBS to quench the radiolysis phenomena. The [^64Cu]Cu^2+ complex stabilities were investigated at different time points after preparation using the TLC or UHPLC protocols reported previously.

[2] = In vivo stability in blood and urine samples (radio-TLC); set-up: species or system BALB/c nude mice
Experimental: All procedures involving animals were performed in accordance with ethical protocols approved by the Italian Ministry of Health (n. 44/2021-PR). Six-week-old female BALB/c nude mice (n = 9) were purchased from Charles River/Envigo and divided into three groups. Mice (n = 3/group) were administered with 7–14 MBq (depending on acquisition time after injection) of [^64Cu][Cu(DO2A2S)] solution by caudal intravenous injection. The exact amount of injected radioactivity was determined using a Capintec CRC-15PET dose calibrator. Micro PET/CT data were collected at 1, 4, and 24 h post injection using a Bruker Albira Si. Mice were anaesthetized with 1–2% isoflurane in a flow of oxygen (2 L/min 100% O2) and images were acquired over 20 min (10 min for PET and CT images acquisition, respectively). […] Radioactivity associated with organs was measured using a γ-spectrometer based on a 1″×1″ inch cylindrical LBC (Lanthanum BromoChloride), LaBr2.85Cl0.15:Ce, inorganic scintillator manufactured by SCIONIX coupled to a HAMAMATSU R11102 Photomultiplier tube (PMT) which was previously characterized and validated against a Capintec CRC-15PET dose calibrator [48]. […] Radioactivity values were expressed as percentage of injected dose (mean ± SEM) per gram of tissue or organ (% ID/g). […]

[3] = Stability assay with DOTA (1000:1 DOTA-to-ligand); type: physicochemical; conditions: RT
Experimental: (§1) The stability of the preformed [^64Cu]Cu^2+ complexes was assessed by adding a 1000:1 DOTA/cysteine-to-ligand molar ratio excess. The incubation temperature was set at 37 °C when cysteine was used to simulate the biological environment, whilst it was kept at RT when DOTA was employed as a challenging agent.
(§2) The complex stability was evaluated over time by withdrawing an aliquot from the reaction mixtures. The latter was analyzed by UHPLC using the method described above.

Human serum stability = type: in vitro ADME; conditions: prepared at 25 MBq/nmol, 37 °C, over 24 h
Experimental: Human serum stability assays were performed as follow: the preformed [^64Cu]Cu^2+ complexes (prepared at 25 MBq/nmol) were diluted 1:5 v/v in human serum. The samples were incubated at 37 °C to simulate the biological environment. At the defined time point, 50 μL of the plasma-containing mixture were added to 200 μL of ice-cold methanol (0.16 MBq/μL final concentration) and centrifuged for 3 min at 8000 rpm. Afterwards, 2 μL of supernatant were spotted on TLC plates developed using the previous protocols. Dissociation of [^64Cu]Cu^2+ from the complexes was also monitored at varying time points using the same procedure with the exception that no proteins were precipitated. In this case, 2 μL of human plasma containing the labelled complex was directly spotted on the TLC plate. […] Both procedures were validated by incubating free [^64Cu]Cu^2+ with human plasma.

[4] = Stability assay with cysteine (1000:1 Cys-to-ligand); type: physicochemical; conditions: 37 °C
Experimental: as §1, §2

[5] = Biodistribution in BALB/c nude mice; type: in vivo
Experimental: All procedures involving animals were performed in accordance with ethical protocols approved by the Italian Ministry of Health (n. 44/2021-PR). Six-week-old female BALB/c nude mice (n = 9) were purchased from Charles River/Envigo and divided into three groups. Mice (n = 3/group) were administered with 7–14 MBq (depending on acquisition time after injection) of [^64Cu][Cu(DO2A2S)] solution by caudal intravenous injection. The exact amount of injected radioactivity was determined using a Capintec CRC-15PET dose calibrator. Micro PET/CT data were collected at 1, 4, and 24 h post injection using a Bruker Albira Si. Mice were anaesthetized with 1–2% isoflurane in a flow of oxygen (2 L/min 100% O2) and images were acquired over 20 min (10 min for PET and CT images acquisition, respectively). PET data were reconstructed using MLEM GPU (Graphics Processing Unit), while Filter Back Projection Algorithm was used for reconstructing CT images. Mice were euthanized by cervical dislocation immediately following the PET/CT scan and organs and tissues of interest were collected and weighed. Radioactivity associated with organs was measured using a γ-spectrometer based on a 1″×1″ inch cylindrical LBC (Lanthanum BromoChloride), LaBr2.85Cl0.15:Ce, inorganic scintillator manufactured by SCIONIX coupled to a HAMAMATSU R11102 Photomultiplier tube (PMT) which was previously characterized and validated against a Capintec CRC-15PET dose calibrator [48]. The results were corrected for decay to the time of injection. Radioactivity values were expressed as percentage of injected dose (mean ± SEM) per gram of tissue or organ (% ID/g). Concurrently, blood and urine aliquots (1 μL) were sampled for stability tests, which were carried out by radio-TLC scans (Cyclone, Perkin Elmer) by using silica gel 60 RP-18 F254S plates and 0.1 M sodium citrate as eluent.

[6] = maximum reached over 1-24 h post-injection

| % of intact complex, DOTA, 0 h [3] | % of intact complex, DOTA, 7 h [3] | % of intact complex, DOTA, 24 h [3] | % of intact complex, Cysteine, 0 h [4] | % of intact complex, Cysteine, 3 h [4] | % of intact complex, Cysteine, 24 h [4] | SMILES | further results |
| --- | --- | --- | --- | --- | --- | --- | --- |
|  |  |  |  |  |  | CSCCN1CCN(CC(=O)O)CCN(CCSC)CCN(CC(=O)O)CC1 [DO2A2S, 1,7-bis[2-(methylsulfanyl)ethyl]-4,10,diacetic acid-1,4,7,10-tetraazacyclododecane] | intact complex in PBS with ascorbic acid ([1]; ascorbic acid 10% v/v): ~ 90%; intact complex in PBS [1]: ~ 25% |
|  |  |  |  |  |  | CSCCN1CCN(CCSC)CCN(CCSC)CCN(CCSC)CC1 [DO4S, 1,4,7,10-Tetrakis[2-(methylsulfanyl)ethyl]-1,4,7,10-tetraazacyclododecane] | intact complex in PBS [1]: ~ 70% |
| 91% | 90% | 87% | 100% | 85% | 74% | CSCCN1CCN(CC(=O)[O-])CCN(CCSC)CCN(CC(=O)[O-])CC1.[64Cu+2] [[^64Cu][Cu(DO2A2S)]] | free-[^64Cu]Cu^2+/+ in urine samples ([2]; 4 h post-injection): ~50%; free copper-64 in blood samples ([2]; within 24 h from the injection): less than 5%; intact complex in human serum (Human serum stability): > 99%; blood levels ([5]; 1 h post-injection, tail vein): < 2 % ID/g; kidneys uptake ([5]; 1 h post-injection, tail vein): 14.1 % ID/g; liver uptake ([5]; 1 h post-injection, tail vein): 14.0 % ID/g; lungs uptake ([5]; 1 h post-injection, tail vein): 8 % ID/g; pancreas uptake ([5]; 1 h post-injection, tail vein): 3 % ID/g; retention in bone ([5]; 1 h post-injection, tail vein): < 2 % ID/g; retention in muscle ([5]; 1 h post-injection, tail vein): < 1 % ID/g; spleen uptake ([5]; 1 h post-injection, tail vein): 4 % ID/g; dose found at 1 h remaining in kidneys at 24 h ([5]; 24 h versus 1 h post-injection): 73%; dose found at 1 h remaining in liver at 24 h ([5]; 24 h versus 1 h post-injection): 82%; dose found at 1 h remaining in lungs at 24 h ([5]; 24 h versus 1 h post-injection): 75%; pancreas uptake, progressive accumulation over time [5, 6]: ≤ 5.5 % ID/g; spleen uptake, progressive accumulation over time [5, 6]: up to 5.3 % ID/g |
| 100% | 100% | 100% | 100% | 100% | 100% | CSCCN1CCNCCN(CCSC)CCN(CCSC)CC1.[64Cu+2] [[^64Cu][Cu(DO3S)]^2+] |  |
| 100% | 80% | 38% | 100% | 83% | 72% | CNC(=O)CN1CCN(CCSC)CCN(CCSC)CCN(CCSC)CC1.[64Cu+2] [[^64Cu][Cu(DO3SAm)]^2+] |  |
| 100% | 92% | 88% | 100% | 100% | 83% | CSCCN1CCN(CCSC)CCN(CCSC)CCN(CCSC)CC1.[64Cu+2] [[^64Cu][Cu(DO4S)]^2+] | complex stability in PBS with radioprotectants ([1]; ethanol 10% v/v or ascorbic acid 10% v/v): preserve the complex over 24 h |
|  |  |  |  |  |  | O=C([O-])CN1CCN(CC(=O)[O-])CCN(CC(=O)[O-])CCN(CC(=O)[O-])CC1.[64Cu+2] [[^64Cu][Cu(DOTA)]^2−, reference compound] | intact complex in human serum (Human serum stability): around 80% |
